Measured values as given in US8926966B1 (Regents of the University of California, priority 1990, dated 2015).

Tested on: IDDM associated autoantibodies in sera
Experiment: ELISA of sera on plate-bound human GAD65 peptides
Assay type: binding
Settings: for controls whose sera recognized the peptide: 13 control sera; for number of IDDM (at risk, pre-IDDM, at onset) patients positive (X) for the peptide (unlabelled sum line): IDDM sera of Table 11; for patients whose sera recognized the peptide: patients previously shown to be 64K positive
Protocol: Patient sera and most control sera were those used in a previous study (Kaufman, et al., J. Clin. Investigation, supra) All samples were coded and tested in a blind manner. Peptides were synthesized using an automatic instrument (Applied Biosystems, Foster City, Calif.) and standard conditions. Peptides were dissolved in 60 mM sodium bicarbonate buffer (pH 9.6) at 20 ug/ml and 100 ul of each was added to duplicated wells of a 96 well Nunc-Immuno Plate. Peptides were allowed to bind at 4° C. overnight. The plates were then washed three times with PBS+0.1% Tween 20 (wash buffer), after which the plates were pre-absorbed with 3% BSA in sodium bicarbonate buffer for 0.5 hours at 37° C., or at room temperature overnight. The plates were then washed 5 times with the above wash buffer. 100 ul of serum at a 1/300 dilution in PBS+0.1% Tween 20 and 1% BSA was added to each well and antibodies were allowed to bind for 1 hour at 37° C. The plates were washed 5 times with wash buffer. 100 ul of a 1/600 dilution of HRP-goat anti-human IgG (BRL, Gaithersberg, Md.) was added to each well and allowed to bind for 1 hour at 37° C. The plates were then washed 7 times and 100 ul of substrate buffer was added to each well for 30 minutes at room temperature. The color development was measured at 410 nm using an ELISA plate reader (ICN, Biomedicals, Costa Mesa, Calif.). Positive sera were defined as: OD410 of the sample/negative control ≧3.0.

[1] = IDDM At Onset serum 048, 1/300 dilution
[2] = IDDM At Onset serum 291, 1/300 dilution
[3] = IDDM At Onset serum 705, 1/300 dilution
[4] = IDDM At Onset serum S.H., 1/300 dilution
[5] = IDDM At Risk serum 052, 1/300 dilution
[6] = Pre-IDDM serum 723, 1/300 dilution

Sequence | controls whose sera recognized the peptide | immunoreactivity of serum with GAD65 peptide [1] | immunoreactivity of serum with GAD65 peptide [2] | immunoreactivity of serum with GAD65 peptide [3] | immunoreactivity of serum with GAD65 peptide [4] | immunoreactivity of serum with GAD65 peptide [5] | immunoreactivity of serum with GAD65 peptide (IDDM At Risk serum L.I., 1/300 dilution) | number of IDDM (at risk, pre-IDDM, at onset) patients positive (X) for the peptide (unlabelled sum line) | immunoreactivity of serum with GAD65 peptide [6] | patients whose sera recognized the peptide | immunoreactivity of serum with GAD65 peptide (control serum 5620, 1/300 dilution) | immunoreactivity of serum with GAD65 peptide (IDDM At Risk serum 356, 1/300 dilution) | immunoreactivity of serum with GAD65 peptide (Pre-IDDM serum J.A., 1/300 dilution) | immunoreactivity of serum with GAD65 peptide (Pre-IDDM serum J.B. (2), 1/300 dilution) | immunoreactivity of serum with GAD65 peptide (Pre-IDDM serum P.T. (1), 1/300 dilution) | immunoreactivity of serum with GAD65 peptide (Pre-IDDM serum P.T. (2), 1/300 dilution) | immunoreactivity of serum with GAD65 peptide (Pre-IDDM serum R.S. (2), 1/300 dilution) | immunoreactivity of serum with GAD65 peptide (control serum S.M., 1/300 dilution)
AALGIGTDSVILIKCDERGK [Peptide 20] | none | X (X = positive for immunoreactivity as defined by 00/background^3.0) | X (X = positive for immunoreactivity as defined by 00/background^3.0) | X (X = positive for immunoreactivity as defined by 00/background^3.0) | X (X = positive for immunoreactivity as defined by 00/background^3.0) | X (X = positive for immunoreactivity as defined by 00/background^3.0) | b (b = borderline response (00/background ?2.5-2.9).) | 7 | X (X = positive for immunoreactivity as defined by 00/background^3.0) | 6/8 |  |  |  |  |  |  |  | 
AFTSEHSHFSLKKGAAALGI [Peptide 19] |  |  |  |  |  | X (X = positive for immunoreactivity as defined by 00/background^3.0) |  | 1 |  |  |  |  |  |  |  |  |  | 
ATHQDIDFLIEEIERLGQDL [Peptide 38] |  | X (X = positive for immunoreactivity as defined by 00/background^3.0) |  |  | b (b = borderline response (00/background ?2.5-2.9).) | b (b = borderline response (00/background ?2.5-2.9).) |  | 1 |  |  |  |  |  |  |  |  |  | 
CGRHVDVFKLWLMWRAKGTTG [Peptide 30] |  |  |  |  |  |  |  |  |  |  | b (b = borderline response (00/background ?2.5-2.9).) |  |  |  |  |  |  | 
DERGKMIPSDLERRILEAKQ [Peptide 21] | none | X (X = positive for immunoreactivity as defined by 00/background^3.0) | X (X = positive for immunoreactivity as defined by 00/background^3.0) | X (X = positive for immunoreactivity as defined by 00/background^3.0) | X (X = positive for immunoreactivity as defined by 00/background^3.0) |  |  | 7 | X (X = positive for immunoreactivity as defined by 00/background^3.0) | 6/8 |  | X (X = positive for immunoreactivity as defined by 00/background^3.0) | X (X = positive for immunoreactivity as defined by 00/background^3.0) | b (b = borderline response (00/background ?2.5-2.9).) | X (X = positive for immunoreactivity as defined by 00/background^3.0) | X (X = positive for immunoreactivity as defined by 00/background^3.0) | b (b = borderline response (00/background ?2.5-2.9).) | b (b = borderline response (00/background ?2.5-2.9).)
